Test results reported in the supplement of paper PMC10307832.

Tests used:
Assay in all cases: relative viability (nuclei count vs DMSO), 5 days (fraction); higher = more cells survive
IDH-C35 + AZD7762 = compound: Cc1ccccc1C(C(=O)NC1CCCCC1)N(C(=O)Cn1ccnc1C)c1cccc(F)c1 [IDH-C35] + NC(=O)Nc1cc(-c2cccc(F)c2)sc1C(=O)N[C@H]1CCCNC1 [AZD7762] (partner 0.2 µM)
Summary of the method: (§1)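 After 5 days of treatment, lung cancer cells in 1536-well plates were fixed and stained in a single step (final 0.05% Triton X-100, 1% formaldehyde, 1 ug/ml Hoechst) and their nuclei counted on 4× images. Treatment had been applied by pin tool the day after seeding as one drug alone or as a fixed anchor-drug dose with five library-drug doses (not always all listed) in √10 steps. Relative viability is the nuclei count of treated wells divided by that of vehicle wells, and values are medians of duplicate plates.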

IDH-C35 + Pictilisib = compound: Cc1ccccc1C(C(=O)NC1CCCCC1)N(C(=O)Cn1ccnc1C)c1cccc(F)c1 [IDH-C35] + CS(=O)(=O)N1CCN(Cc2cc3nc(-c4cccc5[nH]ncc45)nc(N4CCOCC4)c3s2)CC1 [Pictilisib] (partner 1 µM)
Summary of the method: as §1

[1] = compound: CC1=C(C(=NN1)C)CC2=C(C3=C(S2)N(C(=O)N(C3=O)C)CC(C)C)C(=O)N4C[C@@H](CO4)O + O=C(c1cc(Cc2n[nH]c(=O)c3ccccc23)ccc1F)N1CCN(C(=O)C2CC2)CC1 [Olaparib] (partner 8 µM)
Summary of the method: as §1

[2] = compound: CC1=C(C(=NN1)C)CC2=C(C3=C(S2)N(C(=O)N(C3=O)C)CC(C)C)C(=O)N4C[C@@H](CO4)O + CCNC(=O)c1noc(-c2cc(C(C)C)c(O)cc2O)c1-c1ccc(CN2CCOCC2)cc1 [Luminespib] (partner 0.01 µM)
Summary of the method: as §1

| Cell Line | relative viability (IDH-C35 + AZD7762; first compound 0.08 µM) | relative viability (IDH-C35 + AZD7762; first compound 0.253 µM) | relative viability (IDH-C35 + AZD7762; first compound 0.8 µM) | relative viability (IDH-C35 + AZD7762; first compound 2.53 µM) | relative viability (IDH-C35 + AZD7762; first compound 8 µM) | relative viability (IDH-C35 + Pictilisib; first compound 0.08 µM) | relative viability (IDH-C35 + Pictilisib; first compound 0.253 µM) | relative viability (IDH-C35 + Pictilisib; first compound 0.8 µM) | relative viability (IDH-C35 + Pictilisib; first compound 2.53 µM) | relative viability (IDH-C35 + Pictilisib; first compound 8 µM) | relative viability ([1]; first compound 0.0025 µM) | relative viability ([1]; first compound 0.007906 µM) | relative viability ([1]; first compound 0.025 µM) | relative viability ([1]; first compound 0.07906 µM) | relative viability ([1]; first compound 0.25 µM) | relative viability ([2]; first compound 0.0025 µM) | relative viability ([2]; first compound 0.007906 µM) | relative viability ([2]; first compound 0.025 µM) | relative viability ([2]; first compound 0.07906 µM) | relative viability ([2]; first compound 0.25 µM) |
| --- | --- | --- | --- | --- | --- | --- | --- | --- | --- | --- | --- | --- | --- | --- | --- | --- | --- | --- | --- | --- |
| HARA | 0.362 | 0.422 | 0.318 | 0.22 | 0.383 | 0.369 | 0.455 | 0.483 | 0.415 | 0.328 | 1.1 | 0.76 | 0.689 | 0.542 | 0.81 | 0.847 | 1.12 | 0.726 | 0.543 | 0.933 |
| NCI-H838 | 1.09 | 0.922 | 0.918 | 0.953 | 0.925 | 0.414 | 0.506 | 0.453 | 0.508 | 0.423 | 0.741 | 0.714 | 0.639 | 0.65 | 0.604 | 0.295 | 0.265 | 0.312 | 0.273 | 0.239 |
| NCI-H1755 | 0.47 | 0.574 | 0.453 | 0.452 | 0.462 | 0.451 | 0.411 | 0.448 | 0.452 | 0.412 | 0.92 | 0.897 | 0.861 | 0.85 | 0.902 | 0.592 | 0.511 | 0.524 | 0.356 | 0.438 |
| HCC-78 | 0.584 | 0.66 | 0.615 | 0.738 | 0.732 | 0.211 | 0.243 | 0.199 | 0.243 | 0.219 | 0.826 | 1 | 0.92 | 0.854 | 0.798 |  |  |  |  |  |
| IA-LM |  |  |  |  |  | 0.381 | 0.382 | 0.33 | 0.325 | 0.322 | 0.907 | 1.03 | 0.807 | 0.757 | 0.865 |  |  |  |  |  |
| COR-L23 |  |  |  |  |  | 0.85 | 0.769 | 0.833 | 0.79 | 0.833 | 0.404 | 0.33 | 0.298 | 0.328 | 0.325 | 0.756 | 0.744 | 0.666 | 0.549 | 0.765 |
| NCI-H2023 |  |  |  |  |  | 0.285 | 0.22 | 0.245 | 0.229 | 0.233 | 0.47 | 0.496 | 0.449 | 0.435 | 0.51 | 0.868 | 0.945 | 0.725 | 0.603 | 0.737 |
| COR-L 105 |  |  |  |  |  | 0.442 | 0.477 | 0.354 | 0.383 | 0.392 | 0.604 | 0.587 | 0.617 | 0.771 | 0.656 | 0.739 | 0.807 | 0.533 | 0.638 | 0.617 |
| NCI-H520 |  |  |  |  |  | 0.211 | 0.283 | 0.283 | 0.238 | 0.317 | 0.286 | 0.296 | 0.26 | 0.253 | 0.272 | 0.211 | 0.24 | 0.217 | 0.199 | 0.185 |
| SK-LU-1 |  |  |  |  |  | 0.535 | 0.483 | 0.641 | 0.606 | 0.63 | 0.439 | 0.366 | 0.266 | 0.332 | 0.377 | 0.187 | 0.177 | 0.182 | 0.183 | 0.182 |
| NCI-H522 | 0.845 | 0.934 | 0.868 | 0.788 | 0.985 |  |  |  |  |  | 0.793 | 0.646 | 0.53 | 0.4 | 0.348 | 1.29 | 1.22 | 1.11 | 0.644 | 0.586 |
| NCI-H1299 |  |  |  |  |  | 0.818 | 0.671 | 0.96 | 0.759 | 0.745 | 0.986 | 0.991 | 0.975 | 1.01 | 0.988 |  |  |  |  |  |
| NCI-H1650 |  |  |  |  |  | 0.607 | 0.576 | 0.557 | 0.4 | 0.511 | 0.826 | 0.823 | 0.759 | 0.79 | 0.797 | 0.188 | 0.192 | 0.203 | 0.192 | 0.217 |
| NCI-H2009 |  |  |  |  |  | 0.903 | 0.75 | 0.907 | 0.709 | 0.8 | 0.704 | 0.682 | 0.649 | 0.711 | 0.721 | 1.07 | 1.06 | 1.06 | 1.13 | 1.02 |
| NCI-H1648 |  | 0.578 | 0.781 | 0.687 | 0.703 |  |  |  |  |  | 0.878 | 0.724 | 0.63 | 0.782 | 0.887 |  |  |  |  |  |
| SK-MES-1 |  |  |  |  |  | 0.335 | 0.414 | 0.358 | 0.343 | 0.295 | 0.702 | 0.756 | 0.691 | 0.82 | 0.774 | 1.01 | 0.782 | 0.969 | 0.846 | 0.888 |
| NCI-H2342 | 0.521 | 0.563 | 0.498 | 0.572 | 0.384 |  |  |  |  |  | 0.463 | 0.473 | 0.374 | 0.425 | 0.403 | 0.768 | 0.79 | 0.855 | 0.784 | 0.602 |
| SW 900 | 0.564 | 0.787 |  | 0.505 | 0.549 |  |  |  |  |  | 0.805 | 1.09 | 0.846 | 1 | 0.893 | 0.186 | 0.182 | 0.16 | 0.189 | 0.15 |
| HCC-366 | 0.306 | 0.306 | 0.233 | 0.227 | 0.281 | 0.12 | 0.132 | 0.169 | 0.151 | 0.178 | 0.379 | 0.473 | 0.357 | 0.294 | 0.371 |  |  |  |  |  |
| A549 |  |  |  |  |  | 0.532 | 0.504 | 0.595 | 0.472 | 0.401 | 0.322 | 0.391 | 0.355 | 0.358 | 0.4 |  |  |  |  |  |
| NCI-H661 |  |  |  |  |  | 0.346 | 0.446 | 0.404 | 0.534 | 0.427 | 0.72 | 0.738 | 0.681 | 0.782 | 0.77 | 0.877 | 0.938 | 0.824 | 0.913 | 0.885 |
| NCI-H1563 |  |  |  |  |  | 0.646 | 0.682 | 0.662 | 0.619 | 0.619 |  |  |  |  |  | 0.553 | 0.542 | 0.524 | 0.492 | 0.509 |
